The test system of this assay is CEM cells HIV-1 protection, formazan growth assay. The experiment in a line: NCI AIDS Antiviral Assay. The conditions noted are these: for pIC50: measured here: growth of uninfected CEM cells. In a few lines: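 Protection of CEM cells against HIV-1 was scored from cell growth (soluble formazan) across five concentrations, with parallel uninfected cells. Lack of protection may reflect toxicity.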

pEC50, pIC50: −log10 of the molar value. Activity calls are given as the source filed them.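 How the source made its calls: active means compounds giving half or more protection of infected cells from virus-caused growth loss, again on retest; inactive means the rest.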

outcome, EC50 and IC50 data for 56 compounds are collected here from PubChem BioAssay AID179 (DTP/NCI, 2004).

Take `CCCC(Sc1ccccc1)P(=O)(c1ccccc1)c1ccccc1` (stereo not drawn): the outcome was inactive. Still for that read-out and setting: the result for `CC(C)C1=CC2=CC=C3C(C)(C)CC(=O)OC3(C)CC2=C(O)C1=O` (stereo not drawn) reads “inactive”. A word on the pEC50: it is −log10 of the EC50, conventionally taken in molar units. Usually pIC50 stands for the negative decadic logarithm of the IC50, by convention in mol/L. Low readings indicate a high IC50, high ones a low IC50. With `CC1CC(C)(C)OB(OC(C)CC(C)(C)OB2OC(C)CC(C)(C)O2)O1` (stereo not drawn), the pEC50 was < 3.70 and the pIC50 was < 3.70. `Nc1cc(C(F)(F)F)ccc1S`: the pEC50 was < 3.70 and the negative-log IC50 (pIC50) was 4.64. `COc1cccc(C2c3cc4c(cc3OC(N3CCOCC3)C2C)OCO4)c1OC` (stereo not drawn): the pEC50 was < 3.70 and the negative-log IC50 (pIC50) is 5.77. The matching figures for `CCCOc1nc(N)c2cnn(C3CCCCO3)c2n1` (stereo not drawn): < 3.04 and 3.26. Regarding `N#CC(C(=O)C(N)=O)c1ccccc1Cl` (stereo not drawn), the pEC50 was < 3.37 and the pIC50 is < 3.37. Consider `O=C1NCC2(CCN(Cc3ccccc3)CC2)N1`, for which the pEC50 was < 3.70 and the negative-log IC50 (pIC50) is < 3.70. In the case of `COc1cccc(Nc2nc(NNC(=O)Cc3ccccc3)nc(NNC(=O)c3ccncc3)n2)c1`, the pEC50 is < 3.70 and the pIC50 is < 3.70. As to `c1ccc2c(c1)Sc1ccccc1S2`, the pEC50 is < 3.70 and the pIC50 is < 3.70. On to `N#CC(C#N)=c1ccc(=C2NCC3CCCN23)cc1` (stereo not drawn), for which the result was inactive. Consider `O=[N+]([O-])c1ccc([N+](=O)[O-])c(Cl)c1`, for which the pEC50 is < 3.70 and the pIC50 is 5.50. On to `CCOC(=O)CC/C(C)=N\n1c(Cc2ccc(Cl)cc2)n[nH]c1=O`, for which the result was inactive. Consider `C=CCc1cc(OC)c(O)c(C(=O)/C=C/c2ccc(OC)c(OC)c2)c1`, for which the pEC50 is < 4.83 and the pIC50 was < 4.83. For `COc1ccc(CC2(O)C3CC4CCC2C4C3)cc1` (stereo not drawn), the pEC50 was < 3.70 and the negative logarithm of the IC50 (pIC50) was 4.06. For `COc1ccccc1/C=C/C(=O)N1CCC2(CC1)C(=O)N(C)CN2c1ccccc1` the same measures were < 3.70 and 4.29. As for `COc1ccc(C2OC(=O)c3ncccc32)cc1` (stereo not drawn), the pEC50 is < 3.70 and the negative logarithm of the IC50 (pIC50) was < 3.70. In the case of `N#CC(O)CCOCc1ccccc1` (stereo not drawn), the pEC50 was < 3.70 and the negative-log IC50 (pIC50) is 4.27.

Regarding `O=C(NNC(=O)c1ccccc1O)c1ccco1`, the pEC50 was < 3.70 and the negative logarithm of the IC50 (pIC50) is 4.49.

For `O=C(NS(=O)(=O)Nc1ccccc1)OC(c1ccccc1)c1ccccc1`, the pEC50 was < 3.70 and the pIC50 was 4.15.

As to `Oc1ccccc1C=NCCN=Cc1ccccc1O.[CH3][Sn]([CH3])([Cl])[Cl]`, the result was inactive. Turning to `Cc1ccc(Nc2nc(NS(=O)(=O)c3cc(C)c(Cl)cc3S)n[nH]2)cc1`, the negative logarithm of the EC50 (pEC50) is < 3.72 and the pIC50 is 3.75. Take `CC(=O)OC(C(=O)C(O)C(C)C)C(C)C` (stereo not drawn): the pEC50 is < 3.08 and the negative-log IC50 (pIC50) is < 3.08. Regarding `CC1(C)OCC(/C=C\C(O)CC2(C)OCCO2)CO1` (stereo not drawn), the outcome was inactive. Consider `COc1ccc(/C=C(\C#N)c2cccnc2)cc1OC`, for which the pEC50 is < 4.60 and the pIC50 is 4.63. For `CC1COS(=O)N1c1ccccc1` (stereo not drawn) the same measures were < 3.32 and < 3.32.

For `COC(=O)C1=COC(C)C2C[n+]3ccc4c([nH]c5ccccc54)c3CC12` (stereo not drawn), the pEC50 is < 3.70 and the pIC50 was < 3.70. On to `CC(C)(N)Cc1ccccc1Cl`, for which the pEC50 was < 3.70 and the pIC50 was < 3.70. With `CCOC(F)(F)/C=C/c1ccccc1`, the outcome was inactive.

Turning to `CCOC(=O)c1sc(C(=O)OCC)c2c1-c1cccc3cccc-2c13`, the pEC50 is < 3.70 and the pIC50 is < 3.70.

Take `O=C1OC(C2(O)OC(=O)c3ccccc32)c2ccccc21` (stereo not drawn): the pEC50 is < 3.70 and the pIC50 is < 3.70.

For `CCN1C(=O)/C(=C\c2coc3ccccc3c2=O)SC1=S`, the pEC50 is < 6.09 and the negative logarithm of the IC50 (pIC50) was < 6.09. As to `C[C@H](OC(=O)/C=C/c1ccc(O)c(O)c1)[C@H](C)OC(=O)/C=C/c1ccc(O)c(O)c1`, the pEC50 is < 3.70 and the negative-log IC50 (pIC50) is 5.46.

For the compound `COc1ccc2nc3ccc(OC)cc3c(S(=O)CCCl)c2c1` (stereo not drawn), the pEC50 is < 3.70 and the negative-log IC50 (pIC50) was 5.44. With `Cn1cc2c(c1-c1ccccc1)[n+](=O)c1ccccc1n2[O-]`, the pEC50 is 5.29 and the pIC50 was 4.49. Regarding `O=C1OC(c2ccccc2)(c2ccccc2)C(=O)OC1(c1ccccc1)c1ccccc1`, the pEC50 was < 3.70 and the pIC50 was 3.83.

As for `CCCCc1ccc(C2=C(O)C(=O)C(c3ccc(CCCC)cc3)=C(O)C2=O)cc1`, the pEC50 is < 4.36 and the pIC50 is 5.48. Turning to `CC(C)C(=O)CC(c1ccc(Br)cc1)N1N=C(C(C)C)CC1c1ccc(Br)cc1` (stereo not drawn), the pEC50 was < 5.00 and the pIC50 was < 5.00.

Consider `N#C/C(=C\NC(=S)Nc1ccccc1Cl)C(=O)c1ccc2ccccc2c1`, for which the pEC50 is < 3.70 and the pIC50 was 3.85. For `C#CCOC(=O)C=[N+]=[N-]` the same measures were < 3.70 and < 3.70. Regarding `O=C1OC2C3Cc4ccccc4N2C1C3` (stereo not drawn), the pEC50 was < 3.19 and the negative-log IC50 (pIC50) was 3.44. The matching figures for `CN1CCC23c4c5ccc(O)c4OC2C(=NN=C2CCC4(O)C6Cc7ccc(O)c8c7C4(CCN6C)C2O8)CCC3(O)C1C5` (stereo not drawn): < 3.70 and 3.98. For `CCOc1ncn(-c2ccc(NC(=S)Nc3cccc(O)c3)cc2)n1` the same measures were < 3.70 and < 3.70.

As to `O=C(O)CC(c1ccccc1)c1ccccc1`, the pEC50 was < 3.10 and the pIC50 was 3.36. For `CC(C)(C)C(=O)O[C@@H]1COC2C(O)COC21` (stereo partly drawn) the same measures were < 2.97 and 3.01. As for `CC1(C)C2CCC1(C)[C@H](O)[C@H]2Nc1cc(C(F)(F)F)cc(C(F)(F)F)c1` (stereo partly drawn), the pEC50 was < 4.70 and the pIC50 was 6.29. On to `CCOC(=O)c1oc2ccc(OC)c3c2c1CCC3`, for which the outcome was inactive. Take `CCOC(=O)C(C)(c1c[nH]c2ccccc12)c1c[nH]c2ccccc12`: the pEC50 is < 3.70 and the negative logarithm of the IC50 (pIC50) is 4.71. Turning to `CCCCCN(CCCCC)c1ccc(/C=C/c2ccnc3ccccc23)cc1`, the pEC50 is < 4.17 and the negative logarithm of the IC50 (pIC50) was < 4.17. For the compound `CCOCN1COCN(C)C1=O`, the pEC50 was < 2.84 and the pIC50 is < 2.84. Regarding `OCC1OC(c2ccccc2)CC1O` (stereo not drawn), the pEC50 was < 3.70 and the negative logarithm of the IC50 (pIC50) is < 3.70. In the case of `Cc1c(C#N)c(=N)oc2ccccc12`, the pEC50 is < 3.70 and the negative logarithm of the IC50 (pIC50) is 3.94. Turning to `C=C(C)[C@@H]1CC[C@]2(COC(=O)CC3(CC(=O)O)CCCC3)CC[C@]3(C)[C@H](CC[C@@H]4[C@@]5(C)CC[C@H](OC(=O)CC6(CC(=O)O)CCCC6)C(C)(C)[C@@H]5CC[C@]43C)[C@@H]12`, the pEC50 was < 3.70 and the negative-log IC50 (pIC50) is 5.23. `CCc1cccc(C(=O)NCCN(C)C)c1[N+](=O)[O-]`: the pEC50 is < 3.70 and the pIC50 is < 3.70. With `COc1ccc(Nc2nnc(-c3nsc4ccccc34)s2)cc1`, the pEC50 was < 4.67 and the pIC50 was < 4.67. Take `CC1(c2ccc3ccccc3c2)OC(=O)c2cccc(F)c21` (stereo not drawn): the result was inactive.
